Test results reported in patent US20040097594A1 (priority 1998, published 2004).
Read-outs that look alike come from different tables or passages of the source.

Assays:
HIV-1 (strain IIIB) = assay: microbe, parasite or virus in culture; format: cell-based; conditions: lower line of each compound's entry, read-out: IC50 (MT-4 cells)
HIV-1 protease = HIV-1 protease (Human immunodeficiency virus type 1 group M subtype B, UniProt P04585); assay: biochemical
[1] = Human immunodeficiency virus 1, 120 h, MT4 cells infected with HIV-1 strain IIIB, 5 days
[2] = HIV-1 protease, upper line of each compound's entry, read-out: Ki (enzyme)
[3] = Human immunodeficiency virus 1, IIIB, MT4, 120 h, […]

Row | Structure (SMILES) | IC50 (HIV-1 (strain IIIB); [1]) [µM] | Ki (HIV-1 protease; [2]) [µM] | Ki (HIV-1 protease) [µM] | IC50 (HIV-1 (strain IIIB); [3]) [µM]
1 | NC(=O)C[C@H](NC(=O)c1ccc2ccccc2n1)C(=O)N[C@@H](Cc1ccccc1)[C@H](O)CN(OC1CCCC1)S(=O)(=O)c1cccc(N)c1 [Compound 49, (2S)-N^1-(1S,2R)-3-[[(3-aminophenyl)sulfonyl](cyclopentyloxy)amino]-1-benzyl-2-hydroxypropyl-2-[(2-quinolinylcarbonyl)amino]butanediamide] | ≤ 0.1 | < 0.001 |  | 
2 | COc1ccc(S(=O)(=O)N(C[C@@H](O)[C@H](Cc2ccccc2)NC(=O)[C@H](CC(N)=O)NC(=O)c2ccc3ccccc3n2)OC2CCCC2)cc1 [Compound 50] | ≤ 0.1 | < 0.001 |  | 
3 | COC(=O)Nc1nc2cc(S(=O)(=O)N(C[C@@H](O)[C@H](Cc3ccccc3)NC(=O)[C@H](CC(N)=O)NC(=O)c3ccc4ccccc4n3)OC3CCCC3)ccc2[nH]1 [Compound 51, (2S)-4-Amino-4-oxo-2-[(2-quinolinylcarbonyl)amino]butanamido N-(1S,2R)-1-benzyl-3-[(cyclopentyloxy)(2-{(methoxycarbonyl)amino]-1H-benzimidazol-5-ylsulfonyl)amino]-2-hydroxypropylcarbamate] | 0.1 to 0.5 | < 0.001 |  | 
4 | NC(=O)C[C@H](NC(=O)c1ccc2ccccc2n1)C(=O)N[C@@H](Cc1ccccc1)[C@H](O)CN(OC1CCCC1)S(=O)(=O)c1ccc2cn[nH]c2c1 [Compound 52] | ≤ 0.1 | < 0.001 |  | 
5 | COC(=O)Nc1nc2cc(S(=O)(=O)N(C[C@@H](O)[C@H](Cc3ccccc3)NC(=O)O[C@H]3CCOC3)OC3CCCC3)ccc2[nH]1 [Compound 53, (3S)Tetrahydro-3-furanyl N-(1S,2R)-1-benzyl-3-[(cyclopentyloxy)(2-[(methoxycarbonyl)amino]-1H-benzimidazol-5-ylsulfonyl)amino]-2-hydroxypropylcarbamate] | ≤ 0.1 | < 0.001 |  | 
6 | COC(=O)Nc1nc2cc(S(=O)(=O)N(C[C@@H](O)[C@H](Cc3ccccc3)NC(=O)OC3COCOC3)OC3CCCC3)ccc2[nH]1 [Compound 55, 1,3-Dioxan-5-yl N-(1S,2R)-1-benzyl-3-[(cyclopentyloxy)(2-{(methoxycarbonyl)amino]-1H-benzimidazol-5-ylsulfonyl)amino]-2-hydroxypropylcarbamate] | ≤ 0.1 | < 0.001 |  | 
7 | O=C(N[C@@H](Cc1ccccc1)[C@H](O)CN(OC1CCCC1)S(=O)(=O)c1ccc2[nH]ncc2c1)O[C@H]1CCOC1 [Compound 56, (3S)Tetrahydro-3-furanyl N-(1S,2R)-1-benzyl-3-[(cyclopentyloxy)(1H-indazol-5-ylsulfonyl)amino]-2-hydroxypropylcarbamate] | 0.1 to 0.5 | < 0.001 |  | 
8 | O=C(N[C@@H](Cc1ccccc1)[C@H](O)CN(OC1CCCC1)S(=O)(=O)c1ccc2[nH]ncc2c1)OC1CO[C@H]2OCC[C@@H]12 (stereo partly drawn) [Compound 57, (3aS,6aR)Hexahydrofuro[2,3-b]furan-3-yl N-(1S,2R)-1-benzyl-3-[(cyclopentyloxy)(1H-indazol-5-ylsulfonyl)amino]-2-hydroxypropylcarbamate] | ≤ 0.1 | < 0.001 |  | 
9 | O=C(N[C@@H](Cc1ccccc1)[C@H](O)CN(OC1CCCC1)S(=O)(=O)c1ccc2cn[nH]c2c1)O[C@H]1CCOC1 [Compound 58, (3S)Tetrahydro-3-furanyl N-(1S,2R)-1-benzyl-3-[(cyclopentyloxy)(1H-indazol-6-ylsulfonyl)amino]-2-hydroxypropylcarbamate] | 0.1 to 0.5 | < 0.001 |  | 
10 | O=C(N[C@@H](Cc1ccccc1)[C@H](O)CN(OC1CCCC1)S(=O)(=O)c1ccc2cn[nH]c2c1)OC1CO[C@H]2OCC[C@@H]12 (stereo partly drawn) [Compound 59, (3aS,6aR)Hexahydro[2,3-b]furan-3-yl N-(1S,2R)-1-benzyl-3-[(cyclopentyloxy)(1H-indazol-6-ylsulfonyl)amino]-2-hydroxypropylcarbamate] | ≤ 0.1 | < 0.001 |  | 
11 | O=C(N[C@@H](Cc1ccccc1)[C@H](O)CN(OC1CCCC1)S(=O)(=O)c1ccc2cn[nH]c2c1)OC1COCOC1 [Compound 60, 1,3-Dioxan-5-yl N-(1S,2R)-1-benzyl-3-[(cyclopentyloxy)(1H-indazol-6-ylsulfonyl)amino]-2-hydroxypropylcarbamate] | 0.1 to 0.5 | < 0.001 |  | 
12 | CC(C)ON(C[C@@H](O)[C@H](Cc1ccccc1)NC(=O)O[C@H]1CCOC1)S(=O)(=O)c1cccc(N)c1 [Compound 61, (3S)tetrahydro-3-furanyl N-(1S,2R)-3-[[(3-aminophenyl)sulfonyl](isopropoxy)amino]-1-benzyl-2-hydroxypropylcarbamate] | 0.5 to 1 | 0.001 to 0.01 |  | 
13 | CC(C)ON(C[C@@H](O)[C@H](Cc1ccccc1)NC(=O)O[C@H]1CCOC1)S(=O)(=O)c1ccc2[nH]c(=O)[nH]c2c1 [Compound 62, (3S)tetrahydro-3-furanyl N-((1S,2R)-1-benzyl-2-hydroxy-3-isopropoxy[(2-oxo-2,3-dihydro-1H-1,3-benzimidazol-5-yl)sulfonyl]aminopropyl)carbamate] | > 1 | 0.001 to 0.01 |  | 
14 | COc1ccc(S(=O)(=O)N(C[C@@H](O)[C@H](Cc2ccccc2)NC(=O)O[C@H]2CCOC2)OC2CCCCC2)cc1 [Compound 64, (3S)tetrahydro-3-furanyl N-((1S,2R)-1-benzyl-3-(cyclohexyloxy)[(4-methoxyphenyl)sulfonyl]amino-2-hydroxypropyl)carbamate] | > 1 |  | < 0.001 | 
15 | COc1ccc(S(=O)(=O)N(C[C@@H](O)[C@H](Cc2ccccc2)NC(=O)[C@H](CC(N)=O)NC(=O)c2ccc3ccccc3n2)OC2CCCCC2)cc1 [Compound 66] |  |  | < 0.001 | ≤ 0.1
16 | CCC(C)ON(C[C@@H](O)[C@H](Cc1ccccc1)NC(=O)OC1CCOC1)S(=O)(=O)c1ccc(OC)cc1 (stereo partly drawn) [Compound 67, (3S)tetrahydro-3-furanyl N-((1S,2R)-1-benzyl-3-sec-butoxy[(4-methoxyphenyl)sulf-onyl]amino-2-hydroxypropyl)carbamate] | 0.1 to 0.5 | < 0.001 |  | 
17 | CCC(C)ON(C[C@@H](O)[C@H](Cc1ccccc1)NC(=O)OC1CO[C@H]2OCC[C@@H]12)S(=O)(=O)c1ccc(OC)cc1 (stereo partly drawn) [Compound 68, (3R,3aS,6aR)hexahydrofuro[2,3-b]furan-3-yl N-((1S,2R)-1-benzyl-3-sec-butoxy[(4-methoxyphenyl)sulfonyl]amino-2-hydroxypropyl)carbamate] | ≤ 0.1 | < 0.001 |  | 
18 | CCC(C)ON(C[C@@H](O)[C@H](Cc1ccccc1)NC(=O)OC1COCOC1)S(=O)(=O)c1ccc(OC)cc1 (stereo partly drawn) [Compound 69, 1,3-dioxan-5-yl N-((1S,2R)-1-benzyl-3-sec-butoxy[(4-methoxyphenyl)sulfonyl]amino-2-hydroxypropyl)carbamate] | 0.1 to 0.5 | < 0.001 |  | 
19 | CCC(C)ON(C[C@@H](O)[C@H](Cc1ccccc1)NC(=O)c1cccc(O)c1C)S(=O)(=O)c1ccc(OC)cc1 (stereo partly drawn) [Compound 70] | > 0.5 | < 0.001 |  | 
20 | CCC(C)ON(C[C@@H](O)[C@H](Cc1ccccc1)NC(=O)[C@H](CC(N)=O)NC(=O)c1ccc2ccccc2n1)S(=O)(=O)c1ccc(OC)cc1 (stereo partly drawn) [Compound 71] |  | < 0.001 |  | ≤ 0.1
21 | COc1ccc(S(=O)(=O)N(C[C@@H](O)[C@H](Cc2ccccc2)NC(=O)O[C@H]2CCOC2)OC2CCOCC2)cc1 [Compound 72, (3S)tetrahydro-3-furanyl N-(1S,2R)-1-benzyl-2-hydroxy-3-[[(4-methoxyphenyl)sulfonyl](tetrahydro-2H-pyran-4-yloxy)amino]propylcarbamate] | 0.5 to 1 | 0.001 to 0.01 |  | 
